From a melting point compilation (Tetko et al.; mined from patent text by program, amines drawn as free bases though some values may be those of a salt)

SMILES | melting point [°C]
CC(=O)OCCCn1nc(-c2cc(C(C)(C)C)c(O)c(C(C)(C)C)c2)c2cccnc21 | 75 to 77
COc1ccc(CC(=O)NC(NC(Cc2cccnc2C)=NC#N)C(C)(C)C)cc1OC (configuration not stated) | 164 to 165
CC(C)(C)c1cc(CBr)ccc1O[Si](C)(C)C(C)(C)C | 54 to 55
CCn1nc(C#N)c(Nc2ccc(Cl)cc2[N+](=O)[O-])n1 | 130 to 132
CSc1nnc(-c2ccc(Cl)nc2)s1 | 136
CN(C)c1ncnc2c1ncn2Cc1c(Cl)cccc1Cl | 174 to 175
Cc1cc2ccc(Cl)c(C(=O)O)c2nc1C(F)(F)F | 186 to 188
OC1CC(O)C2CC1NN2 (configuration not stated) | 203 to 205
CCOC(=O)c1cc(C(=O)OCC)c(=O)[nH]c1C | 195 to 197
Cn1nc(-c2cccnc2)nc1-c1cccnc1 | 148 to 149
COC(CCCNC(=O)C=CC(=O)NCCCC(OC)OC)OC | 170 to 172
Cc1cc2c(-c3ccccc3)noc2c2c1OC(C(=O)O)C2 (configuration not stated) | 210 to 213
Cc1c(-c2ccco2)c(N2CC[C@H](N(C)C)C2)c2oc(C3CC3)nc2c1C#N | 158 to 159
Oc1ccc(-c2ccc(O)cc2C#Cc2ccccc2)c(C#Cc2ccccc2)c1 | 187
CCOC(=O)c1cnc2c(F)c(F)c(F)cc2c1Cl | 110 to 112
CCOC(=O)N1CCC(Nc2nc3cncnc3n2Cc2ccco2)CC1 | 172
Cc1ccc(-c2nc3ccccc3[nH]2)nc1 | 229 to 230
CCOC(=O)C1=C(N)NC(N)=C(C(=O)OCC)C1c1cccc2ccccc12 | 162 to 163
CS(=O)(=O)c1ncc(OCc2ccccc2)cn1 | 100 to 102
CS(=O)(=O)c1ccc(C(CC2CCCC2)C(=O)Nc2nccs2)cc1C#N (configuration not stated) | 145 to 148
COCC1(C)CC(=O)c2cc(C#N)ccc2O1 (configuration not stated) | 79 to 81
NC(=O)c1cccc(OCCOC2CCNCC2)c1 | 144 to 146
CCC(CC(=O)NC(=O)OC(C)(C)C)Nc1ccc(Cl)cc1 (configuration not stated) | 93 to 94

SMILES | melting point [°C]
CN(C)C(=S)Sc1sn(CCc2ccccc2)c(=O)c1Cl | 125 to 127
N#Cc1c[nH]cc1-c1cccc(Cl)c1F | 178
Cc1oc(-c2ccc(C(F)(F)F)cc2)nc1CCOc1ccc(CN(O)C(N)=O)cc1 | 156 to 157
Cc1nnsc1C(=O)NS(C)(=O)=O | 187
CCCCCCCCCCCCCCCCCC[PH](=O)C(OCC)OCC (configuration not stated) | 54 to 58
CC(=O)SCC(Cc1ccccc1)C(=O)Nc1cccc(C(=O)OCCBr)c1 (configuration not stated) | 85 to 88
CCCCCCCCCCCCCCCCCC(=O)N1CC(O)C1 | 86 to 87.5
O=C(COc1ncc(Cl)cc1Cl)Nc1ccccc1 | 164 to 166
Oc1ccc(-c2nc(-c3ccc(O)cc3O)nc(-c3cccn3Cc3ccccc3)n2)c(O)c1 | > 275
O=C1CCC(=C2CCC(C3CCCCC3)CC2)CC1 (configuration not stated) | 81 to 81.5
CCOc1cc(-c2cc(C(F)(F)F)n3ncc(-c4cc(C)nc(C)c4)c3n2)ccc1C(F)(F)F | 257
O=C(Nc1ccc(-c2ccccc2)cc1C(=O)O)OCc1cc2cc(-c3ccccc3)ccc2o1 | 226
COc1ccc(-c2nc(Cn3ccnn3)cs2)cc1 | 89 to 94
CC(C)Sc1ccc(N)c(C#N)c1 | 67 to 68
COC(=O)C1Oc2ccccc2CC1CO (configuration not stated) | 84 to 85
O=C1CCCCC1c1c[nH]c2ccccc12 (configuration not stated) | 122 to 124
CCCCC(NC(=O)OCc1ccccc1)C(=O)Nc1n[nH]c(=S)s1 (configuration not stated) | 169 to 171
O=[N+]([O-])c1cc(-c2ccccc2)ccc1Cl | 43 to 44
NC1=NC(c2ccc(OC(F)(F)F)cc2)(c2ccc(F)c(-c3cncnc3)c2)C(=O)N1C(F)F (configuration not stated) | 82 to 94
c1cnc2c(c1)ncn2CCCCc1nnnn1C1CCCCC1 | 94 to 95
Nc1cccc(NNC=O)c1 | 108 to 113
O=C(Nc1nnn[nH]1)c1c(C(F)(F)F)nc2c(C(F)(F)F)cccc2c1O | > 260
CCS(=O)(=O)c1cc2c(c(C(=O)O)c1)OCCO2 | 217 to 218

SMILES | melting point [°C]
CC(=O)Nc1ccccc1NC(=O)CN1C(=O)c2ccccc2C1=O | 270
C#CCNc1cccc2c1OC(F)(F)O2 | 66 to 68
CCCN(CCC)C1Cc2cccc3[nH]c(=S)n(c23)C1 (configuration not stated) | 150 to 151
CCn1cc(C(=O)O)c(=O)cc1-c1ccc2c(c1)OCO2 | 269 to 270
c1ccc(-c2nc3cc4oc(-c5ccccc5)nc4cc3o2)cc1 | 319 to 323
O=C(NC(NC(=S)Nc1cccnc1)C(Cl)(Cl)Cl)c1ccc(I)cc1 (configuration not stated) | 197 to 199
CO[C@H]1[C@H](N2CCCC2)c2cc(C#N)ccc2OC1(C)C (relative stereo) | 108 to 109
CCc1cc([N+](=O)[O-])c(Cl)c([N+](=O)[O-])c1COC | 81 to 82
CC(C)C(NC(=O)c1ccc(C(=O)NCC(=O)OCc2ccccc2)cc1)C(=O)N1CCCC1C(=O)NC(C(=O)C(F)(F)F)C(C)C (mixture of isomers) | 77 to 78
Cc1cc(OC(=O)N(C)SSC(C)(C)C)cc(C)c1N=Cc1ccccc1O | 121 to 124
CCN1CNS(=O)(=O)c2cc(O)ccc21 | 214 to 218
O=C(NCC(F)(F)F)NCC(F)(F)F | 154 to 155
CC(C)CCCSC1c2ccccc2C(=O)N1c1ccc2ccc(Cl)nc2n1 (configuration not stated) | 141
N#CCCCC(N)=NO | 99.5 to 101
CC(=O)Nc1c([N+](=O)[O-])cc([N+](=O)[O-])c2c1CCCC2 | 203
COC(=O)c1cc(Cl)cc(C(F)(F)F)n1 | 62 to 63
COc1ccc(Cn2cc3nc(Nc4ccc(C(F)(F)F)cc4Cl)nc(OCc4ccccc4)c3n2)cc1 | 189 to 192
C#CCn1c(=O)n(C(C)C)c2ccc(-c3ncc(C(F)(F)F)cc3Cl)cc21 | 109 to 111
CC(=O)C(=O)NCc1nnc(C)n1-c1cc(Cl)cc(C(=O)c2ccccc2Cl)c1 | 178 to 180
CCCOc1ccc(C(=O)CN2CCOCC2)cc1-c1nc2c(CCC)nn(C)c2c(=O)[nH]1 | 128 to 129
COc1cc2nc(CN(C)C)[nH]c(=O)c2cc1OC | 210 to 212

Other lines, results leading:

melting point [°C] | SMILES
77.3 to 77.8 | COC(=O)/C(O)=C1\CCc2cc(OC)ccc2C1=O
128 to 129 | CCOC1Oc2ccc3cc(C#N)c(Cn4cncn4)cc3c2C1(C)C (configuration not stated)
114 to 115 | Cn1c(-c2ccc(Br)cc2)cc2ccccc21
135 to 140 | COc1cc(CC(=O)C(CNCCOc2ccc(C(=O)O)cc2OC)NC2CC2)ccc1NC(=O)Nc1ccccc1C (configuration not stated)
189 to 190 | CCCCCS(=O)(=O)NC(=O)/C=C/c1ccc(C)n1Cc1ccc(Cl)cc1Cl
146 to 147 | O=[N+]([O-])c1cccnc1Nc1ccc2c(c1)COC2
78 to 80 | CC(C)(C(=O)O)c1ccc(O[Si](C)(C)C(C)(C)C)cc1
142 to 165 | CS(=O)c1ccc(C2CCCC(=O)N2c2ccc(Cl)cc2)cc1 (configuration not stated)
186 to 187 | CC(=NOCCOc1ccc(CC2SC(=O)NC2=O)cc1)c1ccc(-c2ccccc2)nc1 (configuration not stated)
162 to 163 | CC(C)(C)c1ccc(/C=N/OCc2ccc(C(=O)O)c(Br)c2)cc1
140 to 141 | C/C(=C\c1ccc(C=O)cc1)c1ccc2c(c1)C(C)(C)CCC2(C)C
156 to 158 | CC(=O)n1nc(-c2ccncc2)nc1-c1ccncc1
184 to 185 | COC(=O)C(=Cc1ccccc1)c1ccc2nc(-c3ccccc3)oc2c1
242 to 243 | COc1cc(C=CC(=O)Nc2cnc3ccc(C)cc3c2-c2ccccc2C)cc(OC)c1OC(C)=O
278 to 281 | O=C(Nc1ccccc1)c1ccc2c(c1)N(C1CC1)C=NS2(=O)=O
80 to 81.5 | CCc1ccccc1C(Cc1ccccc1NC(=O)C(C)(C)C)NC (configuration not stated)
150 to 151 | COc1nccc(-c2ccc3cc(N(C)C)ccc3c2)c1C#N
124 to 126 | O=[N+]([O-])c1ccc(-c2cccs2)cc1

melting point [°C] | SMILES
148 | CCN(CC)C(=O)Nc1ccc(S(=O)(=O)N2C(=O)C(C)(c3cc(C(=O)NCc4cccnc4)ccc3Cl)c3cc(Cl)ccc32)c(OC)c1 (configuration not stated)
151 to 152 | O=C(N[C@H](Cc1cccc(OC(F)(F)C(F)F)c1)[C@@H](O)c1ccc(CO)cc1)c1cccc2c1C=CCCC2 (racemic)
204 to 206 | Cc1ccn2c(C)c(-c3ccc4sc(=O)n(C)c4c3)nc2c1
129 to 133 | COc1cc(C(=O)NS(=O)(=O)c2ccccc2C)ccc1Cc1c(Cl)n(C)c2ccc(CC3CCN(C)C3=O)cc12 (configuration not stated)
283 to 284 | CN(C)C(=O)c1nc(-c2cccnc2)nc2c1c1ccc(Cl)cc1n2C
193 to 196 | COC(=O)c1cccc(Oc2cccc(-c3nn(C)c(=Nc4ccc(Cl)c(Cl)c4)s3)c2)c1
147 to 150 | O=[N+]([O-])c1ccc(Oc2ccc(O)c(Cl)c2Cl)cc1
125 | COc1ccc(C(=O)Nc2cccnc2Cl)cc1
87 to 90 | O=Cc1ccccc1NC1CCN(Cc2ccccc2)CC1
212 to 214 | CC(=O)Nc1nc(CCc2ccc(NC(=N)N)cc2)c(Cc2cccc(S(C)(=O)=O)c2)s1
230 to 232 | Cc1csc2cc(C(=O)O)ccc12
125 to 131 | NC1=NC(c2ccncc2)(c2cccc(-c3cccnc3F)c2)C2=NCCCN12 (configuration not stated)
110 to 112 | CCOC(=O)/C=C/c1ccc(OCOC)c(C)c1OCc1ccc(Cl)cc1Cl
98 to 99 | CCc1nc(COc2ccc(NC(=O)/C=C/c3cnn(C)c3-c3ccc(F)cc3)cc2)cs1
252 to 253 | Cn1ccc2cc(N3Cc4ccc(N5CCCC5)cc4C3=O)ccc21
232 to 234 | CN(C)C=NC(=O)c1ccc(C(=O)N2Cc3cccn3Cc3ccccc32)cc1
167 to 168 | O=C1C2CCC(N1c1ccc(F)cc1)n1c(=O)n(-c3ccccc3)c(=O)n12 (configuration not stated)
